This experiment addresses taurine/α-ketoglutarate dioxygenase (TauD) (Escherichia coli, UniProt P37610). The experiment can be described thus: UV difference absorption titration of apoprotein with global regression analysis. It counts as binding.

taurine/α-ketoglutarate dioxygenase (TauD), sequence (P37610 2-283): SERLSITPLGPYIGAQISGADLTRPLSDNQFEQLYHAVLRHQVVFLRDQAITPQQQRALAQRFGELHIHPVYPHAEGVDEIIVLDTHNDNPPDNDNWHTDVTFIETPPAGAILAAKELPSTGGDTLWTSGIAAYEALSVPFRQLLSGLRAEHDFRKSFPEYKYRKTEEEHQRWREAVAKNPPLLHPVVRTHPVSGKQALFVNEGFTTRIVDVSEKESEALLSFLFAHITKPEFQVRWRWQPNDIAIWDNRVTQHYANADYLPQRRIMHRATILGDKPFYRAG

As to `NCCS(=O)(=O)O` [taurine], binding was characterised by a dissociation constant (Kd) of 175 ± 10 µM.

Source of the values: article PMC2823959 (Analytical biochemistry, 2009).
